Values of other authors in US20240374540A1, “FORMULATIONS FOR THE TREATMENT OF OCULAR SURFACE DISEASES AND RELATED METHODS” (priority 2016, published 2024).

System: AQP5
Details: human airway epithelial cells (A459 cells)

Nc1c(Br)cc(Br)cc1CN[C@H]1CC[C@H](O)CC1 [ambroxol, Ambroxol]
expression of AQP5: stimulate the expression of AQP5
